Measured values published in publication PMC11375810, “Novel Diacyl-hydrazide Compounds as Potential Therapeutics for Visceral Leishmaniasis” (ACS Omega, 2024).
Read-outs that look alike come from different tables or passages of the source.

Assays:
[1] = system: intracellular L. donovani in THP-1 macrophage host cells; test: THP-1 macrophage infection assay: anti L. donovani activity; conditions: for SI (CC50/IC50): THP-1 CC50 / L. donovani IC50; for L. donovani growth inhibitory activity (in words): L. donovani in THP-1 macrophages
[2] = THP-1 macrophage infection assay: cytotoxicity to host cells; conditions: human
[3] = system: intracellular L. donovani in THP-1 macrophage host cells
[4] = Metabolic stability of compound 1; assay type: in vitro ADME
Source text: We first analyzed compound 1 for physicochemical parameters such as the molecular weight, cLogP, polar surface area, freely rotatable bonds, hydrogen bond donors and acceptors and solubility at pH 2 and 6.5, as well as metabolic stability to evaluate its drug-likeness (Table 1). […] These “drug-like” physicochemical properties and the good synthetic accessibility of the scaffold further supported exploring the compound’s SAR to reveal valuable insights and guidance for drug developers.

[5] = system: L. donovani amastigote/macrophages; design: method as in PMID 25740547; conditions: GSK kinetoplastid high-throughput screen; cited from earlier work
[6] = system: L. donovani in infected macrophages; design: method as in PMID 25740547; conditions: cited from earlier work
HepG2 = system: HepG2; design: method as in PMID 25740547; conditions: GSK screen; read-out: CC50 against HepG2 cells; cited from earlier work
[7] = Leishmania donovani, THP-1, read-out: IC50 (reduction of total number of parasites by 50%)

Compound	IC50 [1, 7]	SI (CC50/IC50) [1]	CC50 at 72 h [2]	other results
O=C(Cc1nc2ccccc2o1)NNC(=O)c1ccc2ccccc2n1 [Compound 5c, N′-(2-(Benzo[d]oxazol-2-yl)acetyl)quinoline-2-carbohydrazide]	49 µM	1.1	54 µM	
N′-(2-(Imidazole-2-yl)acetyl)quinoline-2-carbohydrazide [Compound 12]				CC50 (THP-1 macrophages): 33 µM; SI (CC50/IC50) [3]: 0.7; Complete parasite clearance ([1]; L. donovani in THP-1 macrophage host cells, 10-point curve, top 100 μM, duplicates, n = 1): >100 µM; IC50 ([1]; read-out: IC50 (reduction of total number of parasites by 50%), L. donovani in THP-1 macrophage host cells, 10-point curve, 2× serial dilution, top 100 μM, duplicates, n = 1): 45 µM
Cn1c(CC(=O)NNC(=O)c2ccc(-c3ccccc3)cn2)nc2ccccc21 [Compound 13e, N′-(2-(1-Methyl-1H-benzo[d]imidazole-2-yl)acetyl)-5-phenylpicolinohydrazide]	1.7 µM	29	49 µM	
Cn1c(CC(=O)NNC(=O)c2ccc(-c3ccc(Cl)cc3)cn2)nc2ccccc21 [Compound 17c, 5-(4-Chlorophenyl)-N′-(2-(1-methyl-1H-benzo[d]imidazole-2-yl)acetyl)picolinohydrazide]	1 µM	74	73 µM	
Cn1c(CC(=O)NNC(=O)c2ccccn2)nc2ccccc21 [Compound 13b, N′-(2-(1-Methyl-1H-benzo[d]imidazole-2-yl)acetyl)picolinohydrazide]	44 µM	1.4	62 µM	
COc1ccc(-c2ccc(C(=O)NNC(=O)Cc3nc4ccccc4n3C)nc2)cc1 [Compound 17h, 5-(4-Methoxyphenyl)-N′-(2-(1-methyl-1H-benzo[d]imidazole-2-yl)acetyl)picolinohydrazide]	0.7 µM	>145	> 100 µM	
COc1cccc(-c2ccc(C(=O)NNC(=O)Cc3nc4ccccc4n3C)nc2)c1 [Compound 17g, 5-(3-Methoxyphenyl)-N′-(2-(1-methyl-1H-benzo[d]imidazole-2-yl)acetyl)picolinohydrazide]	0.6 µM	>172	> 100 µM	
Cn1c(CC(=O)NNC(=O)c2ccccc2)nc2ccccc21 [Compound 13c, N′-(2-(1-Methyl-1H-benzo[d]imidazole-2-yl)acetyl)benzohydrazide]	> 100 µM		> 100 µM	L. donovani growth inhibitory activity (in words) [1]: completely lost their L. donovani growth inhibitory activity
COc1ccccc1-c1ccc(C(=O)NNC(=O)Cc2nc3ccccc3n2C)nc1 [Compound 17f, 5-(2-Methoxyphenyl)-N′-(2-(1-methyl-1H-benzo[d]imidazole-2-yl)acetyl)picolinohydrazide]	0.6 µM	32	19 µM	
Cc1cccc(-c2ccc(C(=O)NNC(=O)Cc3nc4ccccc4n3C)nc2)c1 [Compound 17j, N′-(2-(1-Methyl-1H-benzo[d]imidazole-2-yl)acetyl)-5-(m-tolyl)picolinohydrazide]	0.3 µM	173	52 µM	
Cn1c(CC(=O)NNC(=O)c2ccc3ccccc3n2)nc2ccccc21 [Compound 1, N′-(2-(1-Methyl-1H-benzo[d]imidazole-2-yl)acetyl)quinoline-2-carbohydrazide]	1.9 µM	>54	> 100 µM	microsomal CLint ([4]; intrinsic clearance, read-out: metabolic stability Clint,in vitro): 22 µL/min/mg; half-life ([4]; read-out: metabolic stability half-life t1/2): 1.33 h; pIC50 L. donovani imaging: amastigote/macrophages [5]: 6.1; pIC50 L. donovani in infected macrophages ([6]; GSK kinetoplastid high-throughput screen): ~5.9; IC50 ([6]; GSK screen, read-out: IC50 against L. donovani in infected macrophages): ~1.3 µM; therapeutic window CC50/IC50 (selectivity for the parasite) ([6]; HepG2 CC50 / L. donovani IC50, GSK screen): ~79; CC50 (HepG2): ~100 µM
Cc1ccc(-c2ccc(C(=O)NNC(=O)Cc3nc4ccccc4n3C)nc2)cc1 [Compound 17k, N′-(2-(1-Methyl-1H-benzo[d]imidazole-2-yl)acetyl)-5-(p-tolyl)picolinohydrazide]	0.2 µM	>500	> 100 µM	
Cn1c(CC(=O)NNC(=O)c2ccc3ccccc3c2)nc2ccccc21 [Compound 13a, N′-(2-(1-Methyl-1H-benzo[d]imidazole-2-yl)acetyl)-2-naphthohydrazide]	> 100 µM		> 100 µM	L. donovani growth inhibitory activity (in words) [1]: completely lost their L. donovani growth inhibitory activity
Cn1c(CC(=O)NNC(=O)c2cccc(-c3ccccc3)n2)nc2ccccc21 [Compound 13d, N′-(2-(1-Methyl-1H-benzo[d]imidazole-2-yl)acetyl)-6-phenylpicolinohydrazide]	20 µM		> 100 µM	
Cn1c(CC(=O)NNC(=O)c2ccc(-c3ccccc3Cl)cn2)nc2ccccc21 [Compound 17a, 5-(2-Chlorophenyl)-N′-(2-(1-methyl-1H-benzo[d]imidazole-2-yl)acetyl)picolinohydrazide]	1 µM	>103	> 100 µM	
Cc1ccccc1-c1ccc(C(=O)NNC(=O)Cc2nc3ccccc3n2C)nc1 [Compound 17i, N′-(2-(1-Methyl-1H-benzo[d]imidazole-2-yl)acetyl)-5-(o-tolyl)picolinohydrazide]	0.4 µM	168	67 µM	
O=C(Cc1nc2ccccc2s1)NNC(=O)c1ccc2ccccc2n1 [Compound 5b]	> 100 µM		> 100 µM	
Cn1c(CC(=O)NNC(=O)c2ccc(-c3cccc(Cl)c3)cn2)nc2ccccc21 [Compound 17b, 5-(3-Chlorophenyl)-N′-(2-(1-methyl-1H-benzo[d]imidazole-2-yl)acetyl)picolinohydrazide]	1 µM	94	94 µM	
Cn1c(CC(=O)NNC(=O)c2ccc(-c3cccc(C#N)c3)cn2)nc2ccccc21 [Compound 17d, 5-(3-Cyanophenyl)-N′-(2-(1-methyl-1H-benzo[d]imidazole-2-yl)acetyl)picolinohydrazide]	1.4 µM	>74	> 100 µM	
Cn1c(CC(=O)NNC(=O)c2ccc(-c3ccc(C#N)cc3)cn2)nc2ccccc21 [Compound 17e, 5-(4-Cyanophenyl)-N′-(2-(1-methyl-1H-benzo[d]imidazole-2-yl)acetyl)picolinohydrazide]	0.8 µM	120	96 µM	
O=C(Cc1nc2ccccc2[nH]1)NNC(=O)c1ccc2ccccc2n1 [Compound 5a, N′-(2-(1H-Benzo[d]imidazole-2-yl)acetyl)quinoline-2-carbohydrazide]	5.9 µM	>17	> 100 µM	
